From ChEMBL document CHEMBL6177988, “Design, synthesis, biophysical and biological evaluation of original condensed pyrrolopyrimidine and pyrrolopyridine ligands as anti-SARS-CoV-2 agents targeting G4” (Eur J Med Chem, 2025)

Assays:
[1] = system: Non-structural protein 3/TRF2 G-quadruplex ribonucleic acid; experiment: Inhibition of N-terminal His-tagged SARS-CoV-2 Nsp3 SUD-NM domain (413-676 residues)/SARS-CoV-2 TRF2 G-quadruplex RNA incubated for 2 hrs by HTRF assay; format: protein assay, Severe acute respiratory syndrome coronavirus 2
Quadruplex DNA [2] = experiment: Thermal stabilization of human telomeric G-quadruplex F21T DNA (FAM-5'-GGGTTAGGGTTAGGGTTAGGG-3'-TAMRA) assessed as change in half-width of melting temperature at 2 uM by FRET-melting assay; format: nucleic-acid assay
[3] = Cytotoxicity against human A549 cells harboring ACE2-CI33 assessed as cell viability by celltiter glo assay; format: toxicity, cell-based
[4] = Cytotoxicity against human Caco-2 cells harboring ACE2-CI33 assessed as cell viability by celltiter glo assay; format: toxicity, cell-based
Quadruplex DNA [5] = experiment: Thermal stabilization of human telomeric G-quadruplex F21T DNA (FAM-5'-GGGTTAGGGTTAGGGTTAGGG-3'-TAMRA) assessed as change in half-width of melting temperature at 1 uM by FRET-melting assay; format: nucleic-acid assay
Quadruplex DNA [6] = experiment: Thermal stabilization of human telomeric G-quadruplex F21T DNA (FAM-5'-GGGTTAGGGTTAGGGTTAGGG-3'-TAMRA) assessed as change in half-width of melting temperature at 0.5 uM by FRET-melting assay; format: nucleic-acid assay

SMILES	IC50 [1] [µM]	deltaTm1/2 (Quadruplex DNA [2]) [°C]	CC50 [3] [µM]	CC50 at 75 h [4] [µM]	deltaTm1/2 (Quadruplex DNA [5]) [°C]	deltaTm1/2 (Quadruplex DNA [6]) [°C]
CN1CCN(CCCCNCc2ccc(-c3nc(-c4ccc(CNCCCCN5CCN(C)CC5)cc4)c4ncn(-c5ccccc5)c4n3)cc2)CC1	0.115	30.2				
CN(C)CCCCCNCc1ccc(-c2nc(-c3ccc(CNCCCCCN(C)C)cc3)c3ncn(-c4ccccc4)c3n2)cc1	0.103	34				
CN(C)CCCCCNCc1ccc(-c2cn(-c3ccccc3)c3ncnc(-c4ccc(CNCCCCCN(C)C)cc4)c23)cc1	0.14	14.8				
CN(C)CCCCNCc1ccc(-c2nc(-c3ccc(CNCCCCN(C)C)cc3)c3c(ccn3-c3ccccc3)n2)cc1	0.09	18.6				
CN(C)CCCCNCc1ccc(-c2cn(-c3ccccc3)c3ncnc(-c4ccc(CNCCCCN(C)C)cc4)c23)cc1	> 0.5	13.1				
CCN(CC)CCCCNCc1ccc(-c2cc3c(ccn3-c3ccccc3)c(-c3ccc(CNCCCCN(CC)CC)cc3)n2)cc1	0.446	28.7				
CN(C)CCCCCNCc1ccc(-c2cc(-c3ccc(CNCCCCCN(C)C)cc3)c3ccn(-c4ccccc4)c3c2)cc1	0.09	30.9	3.01	2.32		
CN(C)CCCCNCc1ccc(-c2nc(-c3ccc(CNCCCCN(C)C)cc3)c3ccn(-c4ccc(CNCCCCN(C)C)cc4)c3n2)cc1	0.048	> 36			23.8	
CN(C)CCCCNCc1ccc(-c2nc(-c3ccc(CNCCCCN(C)C)cc3)c3ncn(-c4ccccc4)c3n2)cc1	0.079	31.7				
CN(C)CCCNCc1ccc(-c2nc(-c3ccc(CNCCCN(C)C)cc3)c3ccn(-c4ccc(CNCCCN(C)C)cc4)c3n2)cc1	0.05	34.9		≥ 7.2		
CN(C)CCCCNCc1ccc(-c2nc(-c3ccccc3)c3ccn(-c4ccc(CNCCCCN(C)C)cc4)c3n2)cc1	0.097	26.4				
CN(C)CCCCCNCc1ccc(-c2cc3c(ccn3-c3ccccc3)c(-c3ccc(CNCCCCCN(C)C)cc3)n2)cc1	> 0.2	22.6				
CN(C)CCCCNCc1ccc(-c2cc(-c3ccc(CNCCCCN(C)C)cc3)c3ccn(-c4ccccc4)c3c2)cc1	0.075	23.7	2.83	2.14		
CC(C)CCCCNCc1ccc(-c2cc(-c3ccc(CNCCCCC(C)C)cc3)c3ccn(-c4ccccc4)c3c2)cc1	> 0.5	4				
CN1CCN(CCCCNCc2ccc(-c3ccc4ccc5ccc(-c6ccc(CNCCCCN7CCN(C)CC7)cc6)nc5c4n3)cc2)CC1	0.0314	24.1	> 10			
O=c1c(O)cc([C@H]2Oc3cc(O)cc(O)c3C[C@H]2O)cc2c([C@H]3Oc4cc(O)cc(O)c4C[C@H]3O)cc(O)c(O)c12 [THEAFLAVIN]	> 0.5					
CN(C)CCCNCc1ccc(-c2nc(-c3ccc(CNCCCN(C)C)cc3)c3ccn(-c4ccccc4)c3n2)cc1	0.137	25.9				
CN(C)CCCCNCc1ccc(-c2cc3c(ccn3-c3ccccc3)c(-c3ccc(CNCCCCN(C)C)cc3)n2)cc1	0.087	21				
C[n+]1cc(NC(=O)c2ccc3ccc4ccc(C(=O)Nc5cc6ccccc6[n+](C)c5)nc4c3n2)cc2ccccc21						21.2
CN(C)CCCNCc1ccc(-c2cn(-c3ccc(CNCCCN(C)C)cc3)c3ncnc(-c4ccc(CNCCCN(C)C)cc4)c23)cc1	0.046	20.3				
CN(C)CCCCNCc1ccc(-c2cc(-c3ccc(CNCCCCN(C)C)cc3)c3ccn(-c4ccccc4)c3n2)cc1	0.223	26.3				
O=C(O[C@@H]1Cc2c(O)cc(O)cc2O[C@@H]1c1cc(O)c(=O)c2c(O)c(O)cc([C@H]3Oc4cc(O)cc(O)c4C[C@H]3OC(=O)c3cc(O)c(O)c(O)c3)c2c1)c1cc(O)c(O)c(O)c1		0.9				
CN1CCN(CCCCNCc2ccc(-c3cc(-c4ccc(CNCCCCN5CCN(C)CC5)cc4)c4ccn(-c5ccccc5)c4c3)cc2)CC1	0.074	20.4				
CN(C)CCCCNCc1ccc(-c2ccc3ccc4ccc(-c5ccc(CNCCCCN(C)C)cc5)nc4c3n2)cc1	0.0312	18.5	> 10			
